This note sets out measurements from ChEMBL document CHEMBL5143546, “Synthesis and biological evaluation of quinolone derivatives as transthyretin amyloidogenesis inhibitors and fluorescence sensors” (Bioorg Med Chem, 2022).

SMILES strings stand for the structures.

In data set [1] the target is T1, Transthyretin (Homo sapiens, UniProt P02766). The data set can be described thus: Inhibition of urea-induced Transthyretin denaturation in human plasma preincubated for 1 hr followed by urea addition by Western blot analysis. The data set is classed as cell-free. For orientation: A western blot detects proteins with antibodies after separation by electrophoresis.

The nature of data set [2]: Metabolic stability in rat liver microsome assessed as percentage of compound remaining at 1 uM measured after 30 min by LC-MS/MS analysis. The data set is classed as ADME. The following applies: liver microsomes, read-out: Stability. (Liver microsomes are vesicles of endoplasmic reticulum, rich in cytochrome P450 enzymes.)
The nature of data set [3]: Metabolic stability in human liver microsome assessed as percentage of compound remaining at 1 uM measured after 30 min by LC-MS/MS analysis. The following applies: liver microsomes, read-out: Stability. The data set is classed as ADME.
Data set [4] in a line: Metabolic stability in rat plasma assessed as half life at 1 uM by LC-MS/MS analysis. It is filed as ADME, cell-free.
A short description of data set [5]: Metabolic stability in human liver microsome assessed as half life at 1 uM by LC-MS/MS analysis. The data set is classed as ADME. Conditions: liver microsomes.
Data set [6] is described as follows: Metabolic stability in rat liver microsome assessed as half life at 1 uM by LC-MS/MS analysis. The data set is classed as ADME. Conditions: liver microsomes.
In data set [7] the target is T1, Transthyretin. The data set can be described thus: Inhibition of wild-type Transthyretin (unknown origin) expressed in Escherichia coli expression system assessed as acid mediated fibril formation at 3.6 uM measured after 72 hrs by UV-vis spectrophotometry. Also on record: scale not given: the % may be the effect or the level left.
The test system of data set [8] is Transthyretin (Homo sapiens), P02766 [V50M]. The data set can be described thus: Inhibition of Transthyretin V30M mutant (unknown origin) assessed as acid mediated fibril formation at 3.6 uM measured after 72 hrs by UV-vis spectrophotometry. More on the design: scale not given: the % may be the effect or the level left.
The test system is the same in data set [9]. Kind of data set: Inhibition of Transthyretin V30M mutant (unknown origin) assessed as acid mediated fibril formation at 1.8 uM measured after 72 hrs by UV-vis spectrophotometry. More on the design: scale not given: the % may be the effect or the level left.
In data set [10] the target is T1, Transthyretin. The data set can be described thus: Inhibition of wild-type Transthyretin (unknown origin) expressed in Escherichia coli expression system assessed as acid mediated fibril formation at 7.2 uM measured after 72 hrs by UV-vis spectrophotometry. More on the design: scale not given: the % may be the effect or the level left.
A short description of data set [11]: Metabolic stability in rat plasma assessed as percentage of compound remaining at 1 uM measured after 1 hr by LC-MS/MS analysis. The data set is classed as ADME, cell-free. The following applies: read-out: Stability.

On Transthyretin [1], `Cc1cc(/C=C/c2c(C)c3ccc(N)cc3n(C)c2=O)cc(C)c1O` displayed an IC50 of 3.1 µM. Further, the results for the remaining at 0.5 h, 1 µM in data set [2] and in data set [3] were 57.2% and 76.9%, respectively. Also, the half-life at 1 µM was ≥ 10 h in [4], 1.59 h in data set [5] and 0.603 h in [6]. In addition, the Activity on Transthyretin [7] is 12.8%; in data set [8] it was 16.7%; in [9], 49.6%; on Transthyretin [10], 3.4%. In data set [11], the remaining at 1 h, 1 µM is ≥ 100%.

In the case of `COc1cc2c(C)c(/C=C/c3cc(C)c(O)c(C)c3)c(=O)n(C)c2cc1N`, on Transthyretin [1], the IC50 is 11.4 µM. Also, the figures for the remaining at 0.5 h, 1 µM in data set [2] and in data set [3] were 59.9% and 71.5%, respectively. Besides, the results for the half-life at 1 µM in data set [4], in [5] and in data set [6] were 2.33 h, 1.01 h and 0.758 h, respectively. Also, the Activity is 15.7% at Transthyretin [7], 22.9% in data set [8], 55.3% in [9] and 6% at Transthyretin [10]. In [11], the remaining at 1 h, 1 µM was 86.8%.

For `Cc1cc(CCc2c(C)c3ccc(O)cc3n(C)c2=O)cc(C)c1O`, at Transthyretin [1], the midpoint of inhibition, the IC50, lay at 13.7 µM. Moreover, the Activity on Transthyretin [7] came out at 20.8%; in data set [8], 26.5%; in data set [9], 56.6%; at Transthyretin [10], 3.1%.

Turning to `COc1cc2c(C)c(CCc3cc(C)c(O)c(C)c3)c(=O)n(C)c2cc1N`, the Activity on Transthyretin [7] worked out at 31.8%; on Transthyretin [10], 2.5%.

As for `Cc1n[nH]c(C)c1CCc1c(C)c2ccc(N)cc2n(C)c1=O`, the Activity on Transthyretin [7] amounted to 34.8%; at Transthyretin [10], 11.6%.

`Cc1cc(CCc2c(C)c3ccc(N)cc3n(C)c2=O)cc(C)c1O` had an IC50 at Transthyretin [1] of 14.4 µM. The Activity at Transthyretin [7] turned out to be 16.4%; in [8] it was 22.1%; in [9], 54.8%; on Transthyretin [10], 2.3%.

Regarding `O=C(O)c1ccc2nc(-c3cc(Cl)cc(Cl)c3)oc2c1`, the results for the Activity (in data set [8]; on Transthyretin [10]) were 15.9% and 3.6%, respectively.

For the compound `COc1cc2c(C)c(/C=C/c3c(C)n[nH]c3C)c(=O)n(C)c2cc1N`, the Activity on Transthyretin [10] came to 14.3%.

Turning to `Cc1cc(/C=C/c2c(C)c3ccc(O)cc3n(C)c2=O)cc(C)c1O`, the results for the Activity at Transthyretin [7] and at Transthyretin [10] were 24.5% and 5.9%, respectively.

Regarding `Cc1n[nH]c(C)c1/C=C/c1c(C)c2ccc(N)cc2n(C)c1=O`, the values for the Activity at Transthyretin [7] and on Transthyretin [10] were 28.1% and 1.8%, respectively.

For orientation: IC50 means the concentration that inhibits the measured activity by half. Broadly, the half-life is how long it takes for the measured level to halve.
